From the SangsterLogP compilation

Experiment: method code SF-AS, from DOI: 10.1021/jo00922a017
Conditions: pH 1.0

Compound	logD
O=S(=O)(CF)Nc1ccccc1	1.35
O=S(=O)(Nc1cccc(C(F)(F)F)c1)C(F)(F)F	4.5
O=S(=O)(Nc1ccccc1)C(F)F	1.95
CS(=O)(=O)c1cccc(NS(=O)(=O)C(F)(F)F)c1	1.85
CC(=O)c1cccc(NS(=O)(=O)C(F)(F)F)c1	2.78
CS(=O)(=O)Nc1ccc(Cl)cc1	1.85
O=S(=O)(Nc1ccc(Cl)cc1Cl)C(F)(F)F	3.88
O=S(=O)(Nc1ccc(Cl)cc1)C(F)F	2.84
O=S(=O)(CF)Nc1ccc(Cl)cc1	2.25
O=C(c1ccccc1)c1ccc(NS(=O)(=O)C(F)(F)F)cc1	4.28
O=S(=O)(Nc1ccc(F)cc1F)C(F)(F)F	3.06

Further lines, results first:

logD	Compound
3.42	O=S(=O)(Nc1cccc(F)c1)C(F)(F)F
4.39	O=S(=O)(Nc1ccc(I)cc1)C(F)(F)F
4	O=S(=O)(Nc1cccc(Cl)c1)C(F)(F)F
4.97	O=S(=O)(Nc1ccc(-c2ccccc2)cc1)C(F)(F)F
3.25	O=S(=O)(Nc1ccc(F)cc1)C(F)(F)F
3	COc1ccc(NS(=O)(=O)C(F)(F)F)cc1
2.51	O=S(=O)(Nc1cccc(O)c1)C(F)(F)F
3.6	Cc1ccc(NS(=O)(=O)C(F)(F)F)cc1
2.83	CC(=O)c1ccc(NS(=O)(=O)C(F)(F)F)cc1
3.96	O=S(=O)(Nc1ccc(Cl)cc1)C(F)(F)F
3.82	O=S(=O)(Nc1cccc(Br)c1)C(F)(F)F
1.99	CS(=O)(=O)c1ccc(NS(=O)(=O)C(F)(F)F)cc1
3.05	O=S(=O)(Nc1ccccc1)C(F)(F)F
3.13	COc1cccc(NS(=O)(=O)C(F)(F)F)c1
4.47	O=S(=O)(Nc1ccc(C(F)(F)F)cc1)C(F)(F)F
